Reference: US9308238B2, “Compositions and methods for modulating EMT and uses thereof” (Whitehead Institute for Biomedical Research, priority 2010, dated 2016)

Columns and labels:
HTwist and MSP cells [1] = test: Mammosphere assay, HTwist and MSP cells; type: cell-based, human; details: 10 μM; to a similar extent as added BMP4 protein
Method: FIGS. 10A-10E. […] (FIG. 10E) Mammosphere Assay: HTwist and MSP were treated daily during mammosphere formation (5 days) with BMP4 (0.5 μg/ml), SB431542 (10 μM) or a combination of both, n(mammospheres)/1000 cells, n=6.
(§1) Mammosphere and tumorsphere assay. Assays were performed as previously described with modifications (Dontu et al., 2003): 1000 cells/well were seeded in 96-well ultra-low adhesion plates (Corning) in MEGM medium containing 1.3% methylcellulose (Stem Cell Technologies) supplemented with 20 ng/ml EGF, 10 ng/ml bFGF (both Sigma) and B27 (Gibco). Primary spheres were dissociated by trypsinization and replated for secondary sphere formation after a period of 5-7 days.

HTwist and MSP cells [2] = test: Boyden chamber migration assay, HTwist and MSP cells; type: cell-based, human; details: for effect on migration: 10 μM, to a similar extent as added BMP4 protein
Method: (§2) FIGS. 3A-3E. Autocrine Signaling controls migration and mammosphere formation.
FIGS. 10A-10E. […] (FIG. 10C) Mammosphere assay: HTwist cells were treated daily during mammosphere formation (5 days) with proteins as described in (B); *control vs. single treatment, p<1×10^−5, **single vs. double-treatment, p<0.01, n(mammospheres)/1000 cells, n=6, (FIG. 10D) Migration Assay: HTwist and MSP cells were seeded into Boyden Chambers in the presence of TGF-beta Receptor I inhibitors A83-01 and SB431542 (SB43, both at 10 μM). (FIG. 10E) Mammosphere Assay: HTwist and MSP were treated daily during mammosphere formation (5 days) with BMP4 (0.5 μg/ml), SB431542 (10 μM) or a combination of both, n(mammospheres)/1000 cells, n=6.
Migration and invasion assays. For migration assays, 2×10^4 cells were seeded into 24-well cell culture inserts with 8-μm pores (Boyden Chambers, BD Falcon). For invasion assays, matrigel-coated inserts (BD Falcon) were used. After 12-48 hr, the cells on the upper surface of the filters were removed with a cotton swab. For visualization, cells on lower filter surfaces were fixed and stained with a Diff-Quick staining kit (Dade Behring).

26 other kinases = details: cited from earlier work
GSK3 = details: ATP-competitive manner; cited from earlier work
Cdk-1/cyclin B = details: at >100 μM; cited from earlier work
PKC = details: at >100 μM; cited from earlier work
PKA = details: at >100 μM; cited from earlier work
CK-II = details: at >100 μM; cited from earlier work
HMLE^24+ cells = test: Boyden chamber migration assay, HMLE^24+ cells; type: cell-based, human; details: 0.5 μg/ml in growth medium
Method: as §2
FIGS. 5A-5H. Concomitant stimulation of Wnt and TGF-beta pathways allows HMLE^24+ cells to enter into a mesenchymal and SC-like state. (FIG. 5A) RT-PCR: N-Cadherin, Zeb1 and Zeb2, L32 was loading control, n=3. Prior RNA isolation, HMLE^24+-shGFP or -shSFRP1 (stable knockdown of SFRP1, FIG. 12A) cells were treated for 3 days with daily doses of indicated factors: anti-DKK1 antibody (10 μg/ml), anti-E-Cadherin antibody (1 μg/ml), TGF-beta 1 (5 ng/ml), Wnt5a (250 ng/ml), (FIG. 5B) Brightfield microscopy: images of control, TGF-beta- and iEMT-cocktail treated HMLE^24+ cells after 14 days of treatment as indicated (see also FIG. 12D). (FIG. 5C) RT-PCR: Zeb1, Zeb2, E-Cadherin and N-Cadherin, L32 was loading control, n=3. After 14 day treatment, cells were expanded in absence of further stimulation for 4 passages. Shown are PBS-treated control HMLE^24+-shGFP and HMLE^24+-shSFRP1 cells, two HMLE^24+-shGFP cultures treated with TGF-beta 1 (TGF-β-a and -b), two HMLE^24+-shSFRP1 cultures treated with the iEMT-cocktail (iEMT-a and -b). (FIG. 5D) Immunoblot: EMT markers and associated autocrine pathways, cells generated as described in (C). (FIG. 5E) Migration (Boyden Chamber Assay) and Mammosphere Assay: cells generated as indicated in (C), *control vs. TGF-beta treatment, p<1×10^−4, **control vs. iEMT-treatment, p<1×10^−9, n(migration)=3, n(mammospheres)/1000 cells, n=7. (FIG. 5F) Flow cytometry: CD44 and CD24 cell-surface marker expression in control, TGF-beta-a and iEMT-a cells generated as described in (C). (FIG. 5G) Lung metastasis: cells expanded for 8 passages after cessation of treatment as described in (C) were transformed with RAS; 1.0×10^5 cells were injected into the mammary fat pads of mice; GFP-labeled metastases on the surface of the lungs were quantified; *control vs. all other groups, p<0.05, n=5 mice/group. […]

MSP cells = test: Mammosphere assay, MSP cells; type: cell-based, human; details: added daily for 5 days (FIG. 3D)
Method: as §2, §1

With Cc1cccc(-c2nn(C(=S)Nc3ccccc3)cc2-c2ccnc3ccccc23)n1 [A83-01, reference compound] the “effect on mammosphere formation” value (HTwist and MSP cells [1]) was “attenuated” and the effect on migration (HTwist and MSP cells [2]) was “attenuated”.

In the case of COc1ccc(CNC(=O)Nc2ncc([N+](=O)[O-])s2)cc1 [AR-A014418, N-(4-Methoxybenzyl)-N′-(5-nitro-1,3-thiazol-2-yl)urea], the “inhibition of 26 other kinases” value (26 other kinases) is given as “does not significantly inhibit” and the Ki (GSK3) is given as […].

With NC(=O)c1ccc(-c2nc(-c3ccc4c(c3)OCO4)c(-c3ccccn3)[nH]2)cc1 [SB431542, reference compound] the “effect on mammosphere formation” value (HTwist and MSP cells [1]) was “attenuated” and the effect on migration (HTwist and MSP cells [2]) was “attenuated”.

For Cn1sc(=O)n(Cc2ccccc2)c1=O [TDZD-8, 4-Benzyl-2-methyl-1,2,4-thiadiazolidine-3,5-dione], the “inhibition of Cdk-1/cyclin B” value (Cdk-1/cyclin B) is given as “does not inhibit”, the “inhibition of PKC” value (PKC) is given as “does not inhibit” and the “inhibition of PKA” value (PKA) is given as “does not inhibit”. The “inhibition of CK-II” value (CK-II) was “does not inhibit”.

B1: DKK1: Recombinant human DKK1 protein (R&D Systems), secreted antagonist of canonical Wnt pathway (protein, UniProt O94907 32-266, looked up)
Dickkopf-related protein 1: TLNSVLNSNAIKNLPPPLGGAAGHPGSAVSAAPGILYPGGNKYQTIDNYQPYPCAEDEECGTDEYCASPTRGGDAGVQICLACRKRRKRCMRHAMCCPGNYCKNGICVSSDQNHFRGEIEETITESFGNDHSTLDGYSRRTTLSSKMYHTKGQEGSVCLRSSDCASGLCCARHFWSKICKPVLKEGQVCTKHRRKGSHGLEIFQRCYCGEGLSCRIQKDHHQASNSSRLHTCQRH
In the case of B1, the “motility of HMLE^24+ cells upon addition of protein” value (HMLE^24+ cells) is reported as “not further reduced”, the reduction of migration (HTwist and MSP cells [2]; at the highest concentration) is reported as 10 fold and the “reduction of primary mammosphere number” value (MSP cells) is reported as 20%.
